Source: patent US9029389B2 (Institut Pasteur Korea, priority 2011, dated 2015)

Key:
Human 5-lipoxygenase = biological target: T1, Human 5-lipoxygenase (Homo sapiens, UniProt P09917); experiment: Activity of compounds against 5-LO enzyme (LTB4 measurement and/or fluorescence method); assay type: biochemical; conditions: for inhibition at 10 µM: 5-LO, single concentration of 10 uM in duplicate; for IC50: 6 or 11 point dose response in duplicate
T1 construct: purchased Cayman 60402; host or cells: insect cells
T1 sequence (P09917 1-674): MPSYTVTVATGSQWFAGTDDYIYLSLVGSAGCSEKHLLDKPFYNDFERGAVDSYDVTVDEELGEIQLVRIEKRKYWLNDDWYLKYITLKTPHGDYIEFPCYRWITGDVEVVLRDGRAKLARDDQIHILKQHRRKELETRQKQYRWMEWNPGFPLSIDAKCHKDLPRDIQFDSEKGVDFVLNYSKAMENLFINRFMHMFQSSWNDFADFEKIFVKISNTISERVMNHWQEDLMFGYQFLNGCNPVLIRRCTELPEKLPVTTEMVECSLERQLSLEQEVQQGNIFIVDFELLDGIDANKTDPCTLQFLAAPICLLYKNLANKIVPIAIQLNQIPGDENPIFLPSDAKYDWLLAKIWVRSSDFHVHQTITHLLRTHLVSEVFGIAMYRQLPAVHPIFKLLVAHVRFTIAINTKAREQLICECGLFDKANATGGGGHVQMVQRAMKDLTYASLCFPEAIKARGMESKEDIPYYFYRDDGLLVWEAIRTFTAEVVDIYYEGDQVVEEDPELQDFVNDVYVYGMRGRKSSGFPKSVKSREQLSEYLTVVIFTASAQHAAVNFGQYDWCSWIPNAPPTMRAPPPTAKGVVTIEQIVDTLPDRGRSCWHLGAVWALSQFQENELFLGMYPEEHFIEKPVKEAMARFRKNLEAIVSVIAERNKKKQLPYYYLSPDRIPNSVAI
In short: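 Two read-outs: LTB4 measured by EIA and/or LC/MS/MS with LTB4-d4 standard after 15 min RT compound preincubation with insect-cell 5-LO and a 5 min 37 °C reaction on 3 uM arachidonic acid (0.1 mM ATP, pH 7.4). The room-temperature fluorescence format used 20 uM H2DCFDA, 100 uM ATP, 3 uM arachidonic acid, 5 min; IC50 from 6/11-point curves.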

inhibition at 10 µM (Human 5-lipoxygenase) [%]	melting point	IC50 (Human 5-lipoxygenase) [µM]	SMILES
40 to 69	181.5 to 182.8 °C		CCc1nc2cc(Cl)ccn2c1C(=O)NCc1ccc(N2CC(C)CC(C)C2)cc1 (stereo not drawn) [compound 198, 7-Chloro-N-(4-(3,5-dimethylpiperidin-1-yl)benzyl)-2-ethylimidazo[1,2-a]pyridine-3-carboxamide]
< 40	163 °C		CCc1nc2c(OC(F)F)cccn2c1C(=O)NCc1ccc(N2CCOCC2)cc1 [compound 279, 8-(Difluoromethoxy)-2-ethyl-N-(4-morpholinobenzyl)imidazo[1,2-a]pyridine-3-carboxamide]
< 40	179 to 180 °C		CCc1nc2ccc(Cl)cn2c1C(=O)NCc1ccc(C(F)(F)F)cc1 [compound 135, 6-Chloro-2-ethyl-N-(4-(trifluoromethyl)benzyl)imidazo[1,2-a]pyridine-3-carboxamide]
< 40	> 220 °C		CCc1nc2cc(Cl)ccn2c1C(=O)NCc1nc2ccc(-c3ccc(OC(F)(F)F)cc3)cc2o1 [compound 374, 7-chloro-2-ethyl-N-((6-(4-(trifluoromethoxy)phenyl)benzo[d]oxazol-2-yl)methyl)imidazo[1,2-a]pyridine-3-carboxamide]
< 40	165 to 166 °C		CCc1nc2cc(Cl)ccn2c1C(=O)NCc1ccc(N2CC(C)OC(C)C2)cc1 (stereo not drawn) [compound 183, 7-Chloro-N-(4-(2,6-dimethylmorpholino)benzyl)-2-ethylimidazo[1,2-a]pyridine-3-carboxamide]
< 40	> 96.9 °C (dec.)		CCc1nc2cc(Cl)ccn2c1C(=O)NCc1ccc(N2CC(Cc3ccc(F)cc3)OC2=O)cc1 (stereo not drawn) [compound 377, 7-chloro-2-ethyl-N-(4-(5-(4-fluorobenzyl)-2-oxooxazolidin-3-yl)benzyl)imidazo[1,2-a]pyridine-3-carboxamide]
40 to 69	164 °C		CCc1nc2ccc(Cl)cn2c1C(=O)NCc1ccc(N2CCC(c3ccc(F)cc3)CC2)cc1 [compound 249, 6-Chloro-2-ethyl-N-(4-(4-(4-fluorophenyl)piperidin-1-yl)benzyl)imidazo[1,2-a]pyridine-3-carboxamide]
	210.7 °C	< 1	CCc1nc2ncccn2c1CNc1ccc(N2CCN(c3ccc(F)cc3)CC2)cc1 [compound 395, N-((2-Ethylimidazo[1,2-a]pyrimidin-3-yl)methyl)-4-(4-(4-fluorophenyl)piperazin-1-yl)aniline]
> 69	105.6 °C	< 1	CCc1nc2c(F)cccn2c1C(=O)NCc1ccc(Oc2ccc(OC(F)(F)F)cc2)cc1 [compound 224, 2-Ethyl-8-fluoro-N-(4-(4-(trifluoromethoxy)phenoxy)benzyl)imidazo[1,2-a]pyridine-3-carboxamide]
	161.3 °C	< 1	CCc1nc2ccc(Cl)cn2c1COc1ccc(N2CCN(c3ccc(F)cc3)CC2)cc1 [compound 399, 6-chloro-2-ethyl-3-((4-(4-(4-fluorophenyl)piperazin-1-yl)phenoxy)methyl)imidazo[1,2-a]pyridine]
< 40	172.5 °C		CCc1nc2cc(Cl)ccn2c1C(=O)NCc1ccc(N2CCC(COC)CC2)cc1 [compound 248, 7-Chloro-2-ethyl-N-(4-(4-(methoxymethyl)piperidin-1-yl)benzyl)imidazo[1,2-a]pyridine-3-carboxamide]
> 69	127 to 128 °C		CCc1nc2ccc(Cl)cn2c1COc1ccc(OC(F)(F)F)cc1 [compound 143, 6-Chloro-2-ethyl-3-((4-(trifluoromethoxy)phenoxy)methyl)imidazo[1,2-a]pyridine]
< 40	194.2 °C		CCc1nc2ccc(Cl)cn2c1C(=O)NCc1ccc(N2CCC(F)(F)CC2)cc1 [compound 235, 6-chloro-N-(4-(4,4-difluoropiperidin-1-yl)benzyl)-2-ethylimidazo[1,2-a]pyridine-3-carboxamide]
> 69	167.1 to 167.9 °C	1 to 20	CCc1nc2cc(Cl)ccn2c1C(=O)NCc1ccc(Oc2ccc(Cl)cc2)cc1 [compound 161, 7-Chloro-N-(4-(4-chlorophenoxy)benzyl)-2-ethylimidazo[1,2-a]pyridine-3-carboxamide]
40 to 69	123.3 to 123.8 °C		CCc1nc2ccc(Cl)cn2c1C(=O)OCc1ccc(Oc2ccccc2)cc1 [compound 163, 4-Phenoxybenzyl 6-chloro-2-ethylimidazo[1,2-a]pyridine-3-carboxylate]
> 69	178 to 179 °C	1 to 20	CCc1nc2ccccn2c1C(=O)NCc1ccc(N2CCN(c3ccc(OC(F)(F)F)cc3)CC2)cc1 [compound 181, 2-Ethyl-N-(4-(4-(4-(trifluoromethoxy)phenyl)piperazin-1-yl)benzyl)imidazo[1,2-a]pyridine-3-carboxamide]
40 to 69	168.3 °C		C=C1CCN(c2ccc(CNC(=O)c3c(CC)nc4cc(Cl)ccn34)cc2)CC1 [compound 218, 7-Chloro-2-ethyl-N-(4-(4-methylenepiperidin-1-yl)benzyl)imidazo[1,2-a]pyridine-3-carboxamide]
40 to 69	173.5 °C		CCc1nc2ccc(Cl)cn2c1C(=O)NCc1ccc(N2CCC(O)(c3ccc(F)cc3)CC2)cc1 [compound 306, 6-Chloro-2-ethyl-N-(4-(4-(4-fluorophenyl)-4-hydroxypiperidin-1-yl)benzyl)imidazo[1,2-a]pyridine-3-carboxamide]
< 40	209.4 °C		CCc1nc2cc(Cl)ccn2c1C(=O)NCc1ccc(N2CCC(C(F)(F)F)CC2)cc1 [compound 234, 7-Chloro-2-ethyl-N-(4-(4-(trifluoromethyl)piperidin-1-yl)benzyl)imidazo[1,2-a]pyridine-3-carboxamide]
< 40	175.5 °C		CCc1nc2ccc(Cl)cn2c1C(=O)NCc1ccc(N2CCOCC2)c(Cl)c1 [compound 302, 6-Chloro-N-(3-chloro-4-morpholinobenzyl)-2-ethylimidazo[1,2-a]pyridine-3-carboxamide]
	224.7 °C	< 1	CCc1nc2ccc(F)cn2c1C(=O)NC1CCN(c2ccc(Nc3ccccc3)cc2)C1 (stereo not drawn) [compound 403, 2-Ethyl-6-fluoro-N-(1-(4-(phenylamino)phenyl)pyrrolidin-3-yl)imidazo[1,2-a]pyridine-3-carboxamide]
40 to 69	173.8 °C		CCc1nc2ccc(OC)cn2c1C(=O)NCc1ccc(N2CCN(c3ccc(F)cc3)CC2)cc1 [compound 271, 2-Ethyl-N-(4-(4-(4-fluorophenyl)piperazin-1-yl)benzyl)-6-methoxyimidazo[1,2-a]pyridine-3-carboxamide]
40 to 69	159 to 160.7 °C		CCc1nc2ccc(Cl)cn2c1C(=O)NCc1ccc(Oc2ccc(Cl)cc2)cc1 [compound 160, 6-Chloro-N-(4-(4-chlorophenoxy)benzyl)-2-ethylimidazo[1,2-a]pyridine-3-carboxamide]
< 40	183.6 °C		CCc1nc2ccc(Cl)cn2c1C(=O)NCc1ccc(N2CCC(COc3ccc(OC(F)(F)F)cc3)CC2)cc1 [compound 213, 6-chloro-2-ethyl-N-(4-(4-((4-(trifluoromethoxy)phenoxy)methyl)piperidin-1-yl)benzyl)imidazo[1,2-a]pyridine-3-carboxamide]
< 40	> 125.9 °C (dec.)		CCc1nc2cc(Cl)ccn2c1C(=O)NCc1ccc(CC2CCOCC2)cc1 [compound 359, 7-chloro-2-ethyl-N-(4-((tetrahydro-2H-pyran-4-yl)methyl)benzyl)imidazo[1,2-a]pyridine-3-carboxamide]
40 to 69	169.6 °C		CCc1nc2cc(Cl)ccn2c1C(=O)NCc1ccc(NCc2ccc(OC(F)(F)F)cc2)cc1 [compound 215, 7-Chloro-2-ethyl-N-(4-((4-(trifluoromethoxy)benzyl)amino)benzyl)imidazo[1,2-a]pyridine-3-carboxamide]
< 40	257.5 °C		CCc1nc2ccc(Cl)cn2c1C(=O)NCc1ccc(N2CCC(C(N)=O)CC2)cc1 [compound 291, N-(4-(4-Carbamoylpiperidin-1-yl)benzyl)-6-chloro-2-ethylimidazo[1,2-a]pyridine-3-carboxamide]
